Source: article PMC10251477, “Doubly Constrained C-terminal of Roc (COR) Domain-Derived Peptides Inhibit Leucine-Rich Repeat Kinase 2 (LRRK2) Dimerization” (ACS Chemical Neuroscience, 2023)
pKd: −log10 of the molar value. Values joined by “and” are separate entries in the source; they are usually repeats but may differ in a detail not shown here. Equal entries are not always repeated. Bridge positions count the residues as written; N and C are the ends. Square brackets hold non-standard residues; d marks the D form. Peptide text beside a SMILES is read from it. * marks the point of attachment. 5FAM = O=C1OC2(c3ccc(O)cc3Oc3cc(O)ccc32)c2ccc(C(=O)*)cc21; S5 = C=CCCC[C@](C)(N)C(=O)O; AEEEA = NCCOCCOCCOCC(=O)O

What was measured:
MBP-tagged RocCOR LRRK2 = molecular target: T1, MBP-tagged RocCOR LRRK2 (Homo sapiens, UniProt Q5S007); assay: Fluorescence polarization (FP) binding assay, wild-type RocCOR; settings: 10 nM FAM-labeled doubly stapled peptide, wild-type RocCOR 5 μM to 1 nM, 2 mM GTP, 10 mM MgCl2, 20 mM MOPS pH 7, 150 mM NaCl, 0.005% CHAPS, room temperature, 2 h, triplicate
T1 sequence (Q5S007 1328-1840 limits assumed): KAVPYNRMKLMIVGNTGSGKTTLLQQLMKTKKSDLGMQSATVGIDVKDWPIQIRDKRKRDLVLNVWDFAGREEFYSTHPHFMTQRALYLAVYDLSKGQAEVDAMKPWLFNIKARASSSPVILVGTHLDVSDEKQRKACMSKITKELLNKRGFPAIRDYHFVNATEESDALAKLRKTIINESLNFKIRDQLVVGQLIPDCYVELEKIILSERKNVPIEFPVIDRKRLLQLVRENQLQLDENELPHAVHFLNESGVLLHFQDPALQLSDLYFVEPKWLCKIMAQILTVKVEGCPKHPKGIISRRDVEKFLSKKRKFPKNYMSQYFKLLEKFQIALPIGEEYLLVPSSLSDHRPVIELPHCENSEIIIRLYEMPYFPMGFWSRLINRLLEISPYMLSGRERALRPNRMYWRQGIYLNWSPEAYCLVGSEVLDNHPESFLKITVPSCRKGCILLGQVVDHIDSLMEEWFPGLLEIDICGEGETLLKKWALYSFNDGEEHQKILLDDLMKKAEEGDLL
Procedure: Fluorescence polarization assays were conducted on the lead doubly constrained compounds (ECOR and ECOR A12G) with two separate LRRK2 protein constructs: MBP-tagged RocCOR LRRK2 and MBP-tagged R1441C RocCOR LRRK2, both in the presence of 2 mM GTP and 10 mM MgCl2. Protein/peptide interactions were measured in a FP buffer (20 mM MOPS, pH 7, 150 mM NaCl, and 0.005% CHAPS) at room temperature. FAM-labeled peptides were plated in 384-well microtiter plates at a final concentration of 10 nM. Proteins were added over concentrations ranging from 5 μM to 1 nM. Each protein/peptide interaction experiment was carried out at 10 different protein concentrations in triplicate. Each protein/peptide mixture was incubated at room temperature for 2 h and the final reading was performed at the end of this 2 h period.

in vitro = in vitro ADME; settings: human, cells or culture medium
Procedure: Fully confluent HEK293 cells were lysed using ice-cold nondenaturing lysis buffer (20 mM Tris HCL, pH 8.0, 137 mM NaCl, 1% Triton X-100, 2 mM EDTA) and incubated for 30 min at 4 °C. Cells were centrifuged for 20 min at 12 000 rpm, and the supernatant was collected and kept on ice. […] Experiments were conducted at 37 °C with agitation for 0, 2, 4, and 6 h. Aliquots were collected and quenched at each indicated time point using an equal volume of 0.1% trifluoroacetic acid (TFA) in acetonitrile. This solution was then centrifuged at 14 000 rpm for 5 min, and the supernatant was used for analysis. Peptide degradation was analyzed on LC-MS using a Zorbax Eclipse XDB-C18 column as a ratio of peptide to control relative to peptide at t = 0 at 280 nm. A flow rate of 1.0 mL/min at 45 °C was used with a 0–100% water/acetonitrile gradient containing 0.1% TFA. Each individual peptide was analyzed in triplicate for each time point.

[1] = molecular target: T2, LRRK2 G2019S homodimers in HEK293T cells (Homo sapiens, UniProt Q5S007, G2019S); assay: Proximity biotinylation of dimeric LRRK2 in cells; type: cell-based; settings: FAM-labeled peptide 0.5–2.5 μM, 48 h treatment, ELISA of biotinylated LRRK2 normalized to total LRRK2, biological triplicates
T2 construct: expressed in transfected cells; host or cells: HEK293T
T2 sequence (Q5S007 whole entry G2019S): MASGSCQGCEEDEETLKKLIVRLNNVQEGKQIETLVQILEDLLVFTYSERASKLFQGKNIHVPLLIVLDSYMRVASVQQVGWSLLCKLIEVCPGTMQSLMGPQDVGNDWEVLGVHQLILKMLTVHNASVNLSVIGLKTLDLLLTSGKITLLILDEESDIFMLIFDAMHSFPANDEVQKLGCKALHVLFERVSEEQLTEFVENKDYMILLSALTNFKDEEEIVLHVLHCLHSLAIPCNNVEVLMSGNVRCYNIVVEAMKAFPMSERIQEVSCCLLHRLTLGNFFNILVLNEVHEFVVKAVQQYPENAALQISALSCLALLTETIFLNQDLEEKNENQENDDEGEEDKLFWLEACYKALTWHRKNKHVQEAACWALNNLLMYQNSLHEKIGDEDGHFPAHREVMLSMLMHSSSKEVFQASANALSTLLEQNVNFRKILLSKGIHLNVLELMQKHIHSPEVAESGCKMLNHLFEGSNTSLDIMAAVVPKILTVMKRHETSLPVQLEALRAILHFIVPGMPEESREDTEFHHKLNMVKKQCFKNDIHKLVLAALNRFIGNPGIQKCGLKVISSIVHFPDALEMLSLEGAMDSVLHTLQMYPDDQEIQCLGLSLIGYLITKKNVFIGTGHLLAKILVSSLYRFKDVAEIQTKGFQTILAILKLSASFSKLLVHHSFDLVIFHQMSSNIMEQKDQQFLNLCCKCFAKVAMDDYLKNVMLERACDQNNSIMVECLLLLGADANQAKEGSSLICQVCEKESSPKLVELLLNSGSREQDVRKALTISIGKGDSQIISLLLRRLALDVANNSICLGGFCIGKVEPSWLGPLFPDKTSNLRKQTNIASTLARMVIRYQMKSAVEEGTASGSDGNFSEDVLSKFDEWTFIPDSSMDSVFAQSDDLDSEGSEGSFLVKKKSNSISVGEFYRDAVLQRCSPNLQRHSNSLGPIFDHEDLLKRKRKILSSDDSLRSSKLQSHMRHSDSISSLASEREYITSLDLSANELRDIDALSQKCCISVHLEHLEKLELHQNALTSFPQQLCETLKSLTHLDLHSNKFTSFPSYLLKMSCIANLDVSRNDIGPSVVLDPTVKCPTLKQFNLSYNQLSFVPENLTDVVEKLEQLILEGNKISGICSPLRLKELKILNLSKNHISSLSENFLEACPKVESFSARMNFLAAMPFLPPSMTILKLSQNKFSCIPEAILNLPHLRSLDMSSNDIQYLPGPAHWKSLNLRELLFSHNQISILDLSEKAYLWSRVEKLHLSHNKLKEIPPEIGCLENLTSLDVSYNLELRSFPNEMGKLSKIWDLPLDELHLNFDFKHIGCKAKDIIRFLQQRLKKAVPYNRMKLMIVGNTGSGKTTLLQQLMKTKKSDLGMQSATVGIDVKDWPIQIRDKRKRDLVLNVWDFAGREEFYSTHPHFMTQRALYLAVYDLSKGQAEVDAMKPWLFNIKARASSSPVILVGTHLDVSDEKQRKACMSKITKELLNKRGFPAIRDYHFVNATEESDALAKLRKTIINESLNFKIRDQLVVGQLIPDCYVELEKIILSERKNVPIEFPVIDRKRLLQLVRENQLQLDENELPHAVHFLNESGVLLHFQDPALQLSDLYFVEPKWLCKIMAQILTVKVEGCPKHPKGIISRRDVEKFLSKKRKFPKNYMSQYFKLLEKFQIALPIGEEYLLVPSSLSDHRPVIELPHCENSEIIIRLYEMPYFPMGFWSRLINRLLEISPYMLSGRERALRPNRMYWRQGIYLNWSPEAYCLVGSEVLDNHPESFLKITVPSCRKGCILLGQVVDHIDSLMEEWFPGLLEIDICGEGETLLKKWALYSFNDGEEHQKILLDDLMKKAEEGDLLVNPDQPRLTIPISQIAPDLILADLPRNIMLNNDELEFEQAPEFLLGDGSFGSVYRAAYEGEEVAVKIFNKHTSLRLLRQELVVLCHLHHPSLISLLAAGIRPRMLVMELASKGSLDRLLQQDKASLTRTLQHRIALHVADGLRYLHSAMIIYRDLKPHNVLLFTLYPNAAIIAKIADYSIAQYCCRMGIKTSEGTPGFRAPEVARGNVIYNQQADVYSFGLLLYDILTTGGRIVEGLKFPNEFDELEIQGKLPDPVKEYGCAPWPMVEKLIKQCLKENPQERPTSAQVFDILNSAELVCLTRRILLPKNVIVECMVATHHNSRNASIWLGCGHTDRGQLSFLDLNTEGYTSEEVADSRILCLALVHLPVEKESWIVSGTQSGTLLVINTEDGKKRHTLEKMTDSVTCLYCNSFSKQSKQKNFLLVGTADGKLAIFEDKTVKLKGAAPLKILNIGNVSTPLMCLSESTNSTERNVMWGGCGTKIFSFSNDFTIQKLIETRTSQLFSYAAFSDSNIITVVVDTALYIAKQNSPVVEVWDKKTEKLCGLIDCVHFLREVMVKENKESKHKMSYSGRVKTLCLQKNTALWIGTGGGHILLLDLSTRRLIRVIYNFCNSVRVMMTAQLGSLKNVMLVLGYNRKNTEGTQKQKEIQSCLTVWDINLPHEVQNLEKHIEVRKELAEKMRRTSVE
Procedure: LRRK2 dimerization was assessed using either wild-type LRRK2 homodimers or LRRK2 G2019S homodimers. Experiments were carried out using various concentrations (0.5, μM, 1 μM, or 2.5 μM) of FAM-labeled ECOR or ECOR […]. The LRRK2 dimers used were purified as previously described.[18] To generate these dimers, two cDNAs encoding LRRK2 fusions with biotin ligase (BirA; N-term, Flag-tagged) or an acceptor peptide (AP, N-term; c-Myc tagged) were created. These constructs were expressed in HEK293T cells grown in biotin-depleted medium (OptiMEM+2% FBS). FAM-labeled ECO[…] and ECO[…] were diluted in serum-free medium and added 24 h after transfection. 48 h following the initial treatment (after 72 h of total expression), cells were washed in PBS, given a brief biotin pulse (50 μM, 5 min, 37 °C), washed three more times in PBS, and centrifuged. The cell pellet was snap frozen in a dry ice/methanol bath and stored at -80 °C until analysis. […] Protein-bound SA coated plates were incubated with HRP-conjugated anti-Flag antibodies for 1 h at room temperature to quantify dimeric LRRK2. Total LRRK2 overexpression was quantified using HRP-conjugated LRRK2 antibody (clone N241) on the parallel anti-LRRK2 coated plates (precoated with anti-LRRK2, clone c41-2) and was used to normalize dimeric LRRK2 content. […]

[2] = test system: LRRK2 substrate Rab10 (phospho-T73) in A549 PPM1H knockout cells; assay: Rab10 phosphorylation immunoblotting (LRRK2 kinase activity); type: cell-based; settings: Western blot; for downregulation of Rab10 phosphorylation: 1 μM and 2.5 μM peptide (both concentrations), 6 h, pRab10 T73 over total Rab10, normalized to GAPDH and untreated control
Procedure: A549 PPM1H knockout cells were treated with 1 μM and 2.5 μM of doubly constrained peptide for 6 h. Cells treated with 1 μM MLi-2 were used as a positive control. Cell lysates were separated by SDS-PAGE and transferred to PVDF membranes by wet transfer. pRab10 T73 and total Rab10 signals were blotted on different membranes with GAPDH as a loading control on the same membrane to save the membrane from the stripping step. The membranes were blocked in nonfat milk and probed with Rab10 (phospho-T73) (Abcam; ab241060, Lot; GR327 4620-4), total Rab10 (Cell Signaling Technology; #4262S), and total GAPDH (14C10) (Cell Signaling Technology; #2118S) antibodies overnight at 4 °C, followed by incubation with HRP anti-rabbit secondary antibody, and developed using ECL. The blots were quantified using Image Studio Lite version 5.2 by selecting the bands to obtain the intensity for each band. The phospho-Rab10, total Rab10, and GAPDH signal for every sample were normalized to its untreated control for the same day. The phospho-Rab10 and total Rab10 signal was further normalized to the GAPDH signal (loading control) on the same blot. The graph was plotted with GAPDH normalized phospho-Rab10 signal over total Rab10 signal for every sample (*normalized to untreated sample). [drawing 1]

[3] = test system: GFP-LRRK2 in HEK293 cells; assay: LRRK2 microtubule localization assay in live cells; type: cell-based; settings: HEK293 cells overexpressing GFP-LRRK2 24 h, 37 °C, SiR-tubulin stain, live imaging
Procedure: HEK293 cells were transfected with GFP–LRRK2 for 24 h and subsequently treated with DMSO, 1 μM MLi-2, and 2.5 μM ECOR or ECOR A12G peptide for 6 h at 37 °C. The transfected cells were scored single-blinded for skein-like filamentous structures per condition. For tubulin staining, after a 6 h incubation with DMSO, MLi-2, or biotin-labeled peptides, the media was replaced with media containing 1 μM SiR-tubulin (Spirochrome SiR-tubulin Kit (SC002)) and 10 μM verapamil (a broad spectrum efflux pump inhibitor) for 1 h at 37 °C. Live cells were imaged using the 63× oil-immersion objective of a Zeiss LSM800 confocal laser scanning microscope. The Zeiss microscope software ZEN was used to generate channel overlays.

[4] = test system: primary cortical neurons expressing LRRK2 G2019S; assay: Neuronal apoptosis in primary cortical neurons; type: cell-based; settings: primary cortical neurons (E16 C57BL mice) transfected with Flag-LRRK2 G2019S; 0.5–1 μM peptide, 48 h; % Flag-positive neurons with apoptotic nuclei; three biological replicates
Procedure: Neurons were then transfected using Lipofectamine 2000 with Flag-tagged WT LRRK2 or G2019S LRRK2. The following day, neurons were treated with 0.5 μM and 1 μM of both ECO[…] and ECO[…] for 48 h. Cells were washed in PBS and fixed in 3.7% paraformaldehyde for 20 min at 4 °C prior to antibody treatments. Images were analyzed and quantifications were performed as previously described.[30] For the determination of apoptotic neuronal death, fixed and stained neurons were visualized under a 40× magnification objective (dry). On each coverslip, a minimum of 100 Flag-positive neurons were identified and the percentage of those with apoptotic profiles was determined. Apoptotic nuclei were defined as neurons having condensed chromatin, fragmented into at least 2 or more “apoptotic bodies”.

[5] = molecular target: T3, purified full-length LRRK2 dimer (Homo sapiens, UniProt Q5S007); assay: Mass photometry assay of LRRK2 dimerization; type: biochemical; settings: LRRK2 at 75 nM and 100 nM, 7.5-fold excess of peptide, 30 min, 30 °C, three measurements
T3 construct: Purified full-length LRRK2 was incubated for 30 min; made in house
T3 sequence (Q5S007 whole entry): as the sequence (Q5S007 whole entry G2019S) above, with S2019G counted along it
Procedure: LRRK2 was purified as previously described.[30] LRRK2 was diluted to a concentration of 150 nM or 200 nM and incubated with constrained peptide in a 1:7.5 ratio, for 30 min at 30 °C. Mass photometry was performed on a Refeyn Two^MP instrument.[30] The instrument was first focused with 10 μL of buffer (50 mM HEPES, 150 mM NaCl, 5 mM MgCl2, 1 mM DTT, 0.1 mM GDP, and 1% glycerol) after which 10 μL of the incubated LRRK2 solution was added. The samples were recorded for 1 min. Three measurements were processed for each condition, and the data were analyzed by GraphPad Prism.

[6] = 2.5 μM biotin-labeled peptide, 6 h, minimum 500 cells scored

pKd (MBP-tagged RocCOR LRRK2) | remaining at 6 h, 0.2 mM (in vitro) [%] | downregulation of intracellular LRRK2 G2019S dimerization [1] | inhibition of LRRK2 dimer formation [5] | SMILES | downregulation of Rab10 phosphorylation [2] | localization of LRRK2 to microtubules as filamentous skein-like structures [3, 6] | reduction of cortical neuronal apoptosis [4] | inhibition of Rab10 phosphorylation ([2]; 1 μM MLi-2 (positive control)) | localization of LRRK2 to microtubules as filamentous skein-like structures ([3]; 1 μM MLi-2, 6 h)
7.22 to 7.35 and 7.35 | > 80 | 50–60% |  | CC(C)C[C@H](NC(=O)[C@H](CCCCN)NC(=O)[C@]1(C)CCCC=CCCC[C@](C)(NC(=O)[C@H](Cc2c[nH]cn2)NC(=O)[C@H](CCCCN)NC(=O)[C@H](CCC(=O)O)NC(=O)CNC(=O)[C@H](CC(=O)O)NC(=O)[C@H](CC(N)=O)NC(=O)[C@H](Cc2ccccc2)NC(=O)[C@H](CO)NC(=O)[C@H](Cc2ccc(O)cc2)NC(=O)[C@H](CC(C)C)NC(=O)[C@H](C)NC(=O)[C@H](Cc2c[nH]c3ccccc23)NC(=O)[C@]2(C)CCCC=CCCC[C@](C)(NC(=O)[C@H](CCC(=O)O)NC(=O)CNC(=O)[C@H](CCC(=O)O)NC(=O)CNC(=O)[C@H](CCCCN)NC(=O)COCCOCCOCCNC(=O)c3ccc4c(c3)C(=O)OC43c4ccc(O)cc4Oc4cc(O)ccc43)C(=O)N[C@@H](CC(C)C)C(=O)N[C@@H](CC(C)C)C(=O)N[C@@H](CCCCN)C(=O)N2)C(=O)N[C@@H](CCCCN)C(=O)N[C@@H](CCCCN)C(=O)N[C@@H](CC(C)C)C(=O)N1)C(N)=O [ECOR] ({5FAM-AEEEA}-KGEGE[S5]LLK[S5]WALYSFNDGEKH[S5]KKL[S5]KL-NH2; staple 6-10, 23-27) | not found to have measurable effects | no significant localization | over 50% |  | 
 |  |  |  | C[C@@H]1CN(c2cc(-c3n[nH]c4ccc(OC5(C)CC5)cc34)ncn2)C[C@H](C)O1 [MLi-2, reference compound] |  |  |  | nearly completely inhibited | considerable colocalization with tubulin
7.22 to 7.35 and 7.24 | > 80 | 50–60% | strongest dimer inhibition | CC(C)C[C@H](NC(=O)[C@H](CCCCN)NC(=O)[C@]1(C)CCCC=CCCC[C@](C)(NC(=O)[C@H](Cc2c[nH]cn2)NC(=O)[C@H](CCCCN)NC(=O)[C@H](CCC(=O)O)NC(=O)CNC(=O)[C@H](CC(=O)O)NC(=O)[C@H](CC(N)=O)NC(=O)[C@H](Cc2ccccc2)NC(=O)[C@H](CO)NC(=O)[C@H](Cc2ccc(O)cc2)NC(=O)[C@H](CC(C)C)NC(=O)CNC(=O)[C@H](Cc2c[nH]c3ccccc23)NC(=O)[C@]2(C)CCCC=CCCC[C@](C)(NC(=O)[C@H](CCC(=O)O)NC(=O)CNC(=O)[C@H](CCC(=O)O)NC(=O)CNC(=O)[C@H](CCCCN)NC(=O)COCCOCCOCCNC(=O)c3ccc4c(c3)C(=O)OC43c4ccc(O)cc4Oc4cc(O)ccc43)C(=O)N[C@@H](CC(C)C)C(=O)N[C@@H](CC(C)C)C(=O)N[C@@H](CCCCN)C(=O)N2)C(=O)N[C@@H](CCCCN)C(=O)N[C@@H](CCCCN)C(=O)N[C@@H](CC(C)C)C(=O)N1)C(N)=O [ECOR A12G] ({5FAM-AEEEA}-KGEGE[S5]LLK[S5]WGLYSFNDGEKH[S5]KKL[S5]KL-NH2; staple 6-10, 23-27) | ~40% | no significant localization | over 50% |  | 
